From US12522607B2, “Substituted pyrazolo[3,4-d]pyrimidines as wee-1 inhibitors” (WIGEN BIOMEDICINE TECHNOLOGY (SHANGHAI) CO., LTD., priority 2020, dated 2026)

What was measured:
[1] = system: HT29 cells; assay: Antiproliferative activity against HT29 cells (Cell Titer-Lumi, ATP content); type: cell-based; conditions: Homo sapiens, HT-29, 72 after compound addition, read-out: HT-29 cells Anti-proliferative activity (IC50 for the inhibition against HT-29 cell growth)
Experimental: Example 343. Assay for Antiproliferative Activity Against HT29 Cells
3000 HT29 cells were seed in a 384-well plate (Fisher 142762). After the cells adhered to the wall overnight, the compounds diluted in a gradient were added. 72 later, Cell Titer-Lumi (Beyotime C0068XL) was added to determine the content of ATP in the cells. The growth of the cells was evaluated, and the IC50 for the inhibition of the compounds against cell growth was calculated.

[2] = biological target: T1, Wee-1 kinase (Homo sapiens, UniProt P30291); assay: Inhibitory activity against Wee-1 kinase (Lanthra Screen Wee-1 kinase kit, Tracer 178); type: binding; conditions: Wee-1 kinase 5 nM, Tracer 178 50 nM, 1 h room temperature
T1 construct: purchased Invitrogen
Experimental: Example 342. Assay for Inhibitory Activity of Compounds Against Wee-1 Kinase
The inhibitory activity of compounds against Wee-1 kinase was determined by using the Lanthra Screen Wee-1 kinase kit (Invitrogen). 5 μL of the compound diluted in a gradient with DMSO, 5 μL. of Wee-1 kinase (at a final concentration of 5 nM), 5 μL of an Eu-Anti-GST antibody (at a final concentration of 2 nM) mixture and 5 μL of kinase Tracer 178 (at a final concentration of 50 nM) were mixed well. The plate was read after incubation at room temperature for one hour. For comparison with the DMSO solvent control group, IC50 for the inhibition activity of the compounds against Wee-1 kinase was calculated.

T1 sequence (P30291 whole entry): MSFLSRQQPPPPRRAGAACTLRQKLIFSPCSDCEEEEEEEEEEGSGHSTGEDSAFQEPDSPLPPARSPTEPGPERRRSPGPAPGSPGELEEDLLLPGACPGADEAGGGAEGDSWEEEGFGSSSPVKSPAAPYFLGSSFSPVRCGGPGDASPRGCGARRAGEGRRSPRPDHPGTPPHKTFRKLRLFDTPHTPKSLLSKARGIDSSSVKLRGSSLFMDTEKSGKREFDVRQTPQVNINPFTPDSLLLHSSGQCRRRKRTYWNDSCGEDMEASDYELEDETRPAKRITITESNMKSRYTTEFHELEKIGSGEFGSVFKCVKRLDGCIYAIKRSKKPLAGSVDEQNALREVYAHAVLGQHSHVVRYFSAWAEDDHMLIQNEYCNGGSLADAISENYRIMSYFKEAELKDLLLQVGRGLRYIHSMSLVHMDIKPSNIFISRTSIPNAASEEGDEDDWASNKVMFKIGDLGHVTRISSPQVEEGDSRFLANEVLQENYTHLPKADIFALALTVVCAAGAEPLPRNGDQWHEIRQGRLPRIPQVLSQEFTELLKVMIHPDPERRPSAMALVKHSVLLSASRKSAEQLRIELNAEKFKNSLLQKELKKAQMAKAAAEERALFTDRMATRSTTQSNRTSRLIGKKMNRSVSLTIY

Structure (SMILES): C=CCn1c(=O)c2cnc(Nc3ccc(N4CCN(C)CC4)cc3)nc2n1-c1ccc(=O)n(C)n1 [Compound 1, 2-allyl-1-(1-methyl-6-oxo-1,6-dihydropyridazin-3-yl)-6-((4-(4-methylpiperazin-1-yl)phenyl)amino)-1,2-dihydro-3H-pyrazolo[3,4-d]pyrimidin-3-one]
- IC50 [1]: > 3000 nM
- IC50 [2]: > 100 nM

Structure (SMILES): C=CCn1c(=O)c2cnc(Nc3ccc(N4CCN(C)CC4)cc3)nc2n1-c1ccc(=O)n(CC)n1 [Compound 2]
- IC50 [1]: > 3000 nM
- IC50 [2]: > 100 nM

Structure (SMILES): C=CCn1c(=O)c2cnc(Nc3ccc(N4CCN(C)CC4)cc3)nc2n1-c1ccc(=O)n(CC(C)C)n1 [Compound 4]
- IC50 [1]: 1000 to 3000 nM
- IC50 [2]: 30 to 100 nM

Structure (SMILES): C=CCn1c(=O)c2cnc(Nc3ccc(N4CCN(C)CC4)cc3)nc2n1-c1ccc(=O)n(C(C)CC)n1 (stereo not shown) [Compound 5]
- IC50 [1]: ≤ 1000 nM
- IC50 [2]: ≤ 30 nM

Structure (SMILES): C=CCn1c(=O)c2cnc(Nc3ccc(N4CCN(C)CC4)cc3)nc2n1-c1ccc(=O)n(CC(C)(C)C)n1 [Compound 6]
- IC50 [1]: 1000 to 3000 nM
- IC50 [2]: 30 to 100 nM

Structure (SMILES): C=CCn1c(=O)c2cnc(Nc3ccc(N4CCN(C)CC4)cc3)nc2n1-c1ccc(=O)n(CC(F)F)n1 [Compound 7]
- IC50 [1]: 1000 to 3000 nM
- IC50 [2]: 30 to 100 nM

Structure (SMILES): C=CCn1c(=O)c2cnc(Nc3ccc(N4CCN(C)CC4)cc3)nc2n1-c1ccc(=O)n(CC(F)(F)F)n1 [Compound 8]
- IC50 [1]: 1000 to 3000 nM
- IC50 [2]: 30 to 100 nM

Structure (SMILES): C=CCn1c(=O)c2cnc(Nc3ccc(N4CCN(C)CC4)cc3)nc2n1-c1ccc(=O)n(C(C)(C)C)n1 [Compound 9]
- IC50 [1]: ≤ 1000 nM
- IC50 [2]: ≤ 30 nM

Structure (SMILES): C=CCn1c(=O)c2cnc(Nc3ccc(N4CCN(C)CC4)cc3)nc2n1-c1ccc(=O)n(C(C)(C)C(F)(F)F)n1 [Compound 10]
- IC50 [1]: ≤ 1000 nM
- IC50 [2]: ≤ 30 nM

Structure (SMILES): C=CCn1c(=O)c2cnc(Nc3ccc(N4CCN(C)CC4)cc3)nc2n1-c1ccc(=O)n(C2CC2)n1 [Compound 11]
- IC50 [1]: ≤ 1000 nM
- IC50 [2]: ≤ 30 nM

Structure (SMILES): C=CCn1c(=O)c2cnc(Nc3ccc(N4CCN(C)CC4)cc3)nc2n1-c1ccc(=O)n(C2CCC2)n1 [Compound 12]
- IC50 [1]: ≤ 1000 nM
- IC50 [2]: ≤ 30 nM

Structure (SMILES): C=CCn1c(=O)c2cnc(Nc3ccc(N4CCN(C)CC4)cc3)nc2n1-c1ccc(=O)n(C2CCCC2)n1 [Compound 13]
- IC50 [1]: ≤ 1000 nM
- IC50 [2]: ≤ 30 nM

Structure (SMILES): C=CCn1c(=O)c2cnc(Nc3ccc(N4CCN(C)CC4)cc3)nc2n1-c1ccc(=O)n(C2COC2)n1 [Compound 14]
- IC50 [1]: > 3000 nM
- IC50 [2]: 30 to 100 nM

Structure (SMILES): C=CCn1c(=O)c2cnc(Nc3ccc(N4CCN(C)CC4)cc3)nc2n1-c1ccc(=O)n(C2CC(F)(F)C2)n1 [Compound 15]
- IC50 [1]: 1000 to 3000 nM
- IC50 [2]: 30 to 100 nM

Structure (SMILES): C=CCn1c(=O)c2cnc(Nc3ccc(N4CCN(C)CC4)cc3)nc2n1-c1ccc(=O)n(CC2CC2)n1 [Compound 16]
- IC50 [1]: 1000 to 3000 nM
- IC50 [2]: 30 to 100 nM

Structure (SMILES): C=CCn1c(=O)c2cnc(Nc3ccc(N4CCN(C)CC4)cc3)nc2n1-c1ccc(=O)n(CC2CCC2)n1 [Compound 17]
- IC50 [1]: 1000 to 3000 nM
- IC50 [2]: 30 to 100 nM

Structure (SMILES): C=CCn1c(=O)c2cnc(Nc3ccc(N4CCN(C)CC4)cc3)nc2n1-c1ccc(=O)n(C(C)(C)CO)n1 [Compound 18]
- IC50 [1]: 1000 to 3000 nM
- IC50 [2]: ≤ 30 nM

Structure (SMILES): C=CCn1c(=O)c2cnc(Nc3ccc(N4CCN(C)CC4)cc3)nc2n1-c1ccc(=O)n(C(C)(C)COC)n1 [Compound 19]
- IC50 [1]: 1000 to 3000 nM
- IC50 [2]: ≤ 30 nM

Structure (SMILES): C=CCn1c(=O)c2cnc(Nc3ccc(N4CCN(C)CC4)cc3)nc2n1-c1ccc(=O)n(C(C)C)c1 [Compound 20]
- IC50 [1]: ≤ 1000 nM
- IC50 [2]: ≤ 30 nM

Structure (SMILES): C=CCn1c(=O)c2cnc(Nc3ccc(N4CCN(C)CC4)cc3)nc2n1-c1ccc(=O)n(C(C)(C)C)c1 [Compound 21]
- IC50 [1]: ≤ 1000 nM
- IC50 [2]: ≤ 30 nM

Structure (SMILES): C=CCn1c(=O)c2cnc(Nc3ccc(N4CCN(C)CC4)cc3)nc2n1-c1cc(C)c(=O)n(C(C)C)n1 [Compound 22]
- IC50 [1]: ≤ 1000 nM
- IC50 [2]: ≤ 30 nM

Structure (SMILES): C=CCn1c(=O)c2cnc(Nc3ccc(N4CCN(C)CC4)cc3)nc2n1-c1cc(OC)c(=O)n(C(C)C)n1 [Compound 23]
- IC50 [1]: > 3000 nM
- IC50 [2]: ≤ 30 nM

Structure (SMILES): C=CCn1c(=O)c2cnc(Nc3ccc(N4CCN(C)CC4)cc3)nc2n1-c1cc(F)c(=O)n(C(C)C)c1 [Compound 24]
- IC50 [1]: ≤ 1000 nM
- IC50 [2]: ≤ 30 nM

Structure (SMILES): C=CCn1c(=O)c2cnc(Nc3ccc(N4CCN(C)CC4)cc3)nc2n1-c1cc(C(F)(F)F)c(=O)n(C(C)C)c1 [Compound 25]
- IC50 [1]: ≤ 1000 nM
- IC50 [2]: ≤ 30 nM

Structure (SMILES): C=CCn1c(=O)c2cnc(Nc3ccc(N4CCN(C)CC4)cc3)nc2n1-c1cc(C(F)F)c(=O)n(C(C)C)c1 [Compound 26]
- IC50 [1]: ≤ 1000 nM
- IC50 [2]: ≤ 30 nM

Structure (SMILES): C=CCn1c(=O)c2cnc(Nc3ccc(N4CCN(C)CC4)cc3)nc2n1-c1cc(OC)c(=O)n(C(C)C)c1 [Compound 27]
- IC50 [1]: > 3000 nM
- IC50 [2]: 30 to 100 nM

Structure (SMILES): C=CCn1c(=O)c2cnc(Nc3ccc(N4CCN(C)CC4)cc3)nc2n1-c1cc(C#N)c(=O)n(C(C)C)c1 [Compound 28]
- IC50 [1]: > 3000 nM
- IC50 [2]: 30 to 100 nM

Structure (SMILES): C=CCn1c(=O)c2cnc(Nc3ccc(N4CCN(C)CC4)cc3)nc2n1-c1cn(C(C)C)c(=O)cc1C [Compound 29]
- IC50 [1]: ≤ 1000 nM
- IC50 [2]: ≤ 30 nM

Structure (SMILES): C=CCn1c(=O)c2cnc(Nc3ccc(N4CCN(C)CC4)cc3)nc2n1-c1cn(C(C)C)c(=O)cc1OC [Compound 30]
- IC50 [1]: > 3000 nM
- IC50 [2]: 30 to 100 nM

Structure (SMILES): C=CCn1c(=O)c2cnc(Nc3ccc(N4CCNCC4)cc3)nc2n1-c1ccc(=O)n(C(C)C)n1 [Compound 31]
- IC50 [1]: ≤ 1000 nM
- IC50 [2]: ≤ 30 nM

Structure (SMILES): C=CCn1c(=O)c2cnc(Nc3ccc(N4CCN(CC)CC4)cc3)nc2n1-c1ccc(=O)n(C(C)C)n1 [Compound 32]
- IC50 [1]: ≤ 1000 nM
- IC50 [2]: ≤ 30 nM

Structure (SMILES): C=CCn1c(=O)c2cnc(Nc3ccc(N4CCN(C5CC5)CC4)cc3)nc2n1-c1ccc(=O)n(C(C)C)n1 [Compound 33]
- IC50 [1]: ≤ 1000 nM
- IC50 [2]: ≤ 30 nM

Structure (SMILES): C=CCn1c(=O)c2cnc(Nc3ccc(N4CCN(C5CCC5)CC4)cc3)nc2n1-c1ccc(=O)n(C(C)C)n1 [Compound 34]
- IC50 [1]: ≤ 1000 nM
- IC50 [2]: ≤ 30 nM

Structure (SMILES): C=CCn1c(=O)c2cnc(Nc3ccc(N4CCN(C5COC5)CC4)cc3)nc2n1-c1ccc(=O)n(C(C)C)n1 [Compound 35]
- IC50 [1]: ≤ 1000 nM
- IC50 [2]: ≤ 30 nM

Structure (SMILES): C=CCn1c(=O)c2cnc(Nc3ccc(N4CCN(C5CCN(C)CC5)CC4)cc3)nc2n1-c1ccc(=O)n(C(C)C)n1 [Compound 36]
- IC50 [1]: ≤ 1000 nM
- IC50 [2]: ≤ 30 nM

Structure (SMILES): C=CCn1c(=O)c2cnc(Nc3ccc(N4CCN(CCF)CC4)cc3)nc2n1-c1ccc(=O)n(C(C)C)n1 [Compound 37]
- IC50 [1]: ≤ 1000 nM
- IC50 [2]: ≤ 30 nM

Structure (SMILES): C=CCn1c(=O)c2cnc(Nc3ccc(N4CCN(CC(F)F)CC4)cc3)nc2n1-c1ccc(=O)n(C(C)C)n1 [Compound 38]
- IC50 [1]: ≤ 1000 nM
- IC50 [2]: ≤ 30 nM

Structure (SMILES): C=CCn1c(=O)c2cnc(Nc3ccc(N4CCN(CC(F)(F)F)CC4)cc3)nc2n1-c1ccc(=O)n(C(C)C)n1 [Compound 39]
- IC50 [1]: ≤ 1000 nM
- IC50 [2]: ≤ 30 nM

Structure (SMILES): C=CCn1c(=O)c2cnc(Nc3ccc(N4CCN(CC#N)CC4)cc3)nc2n1-c1ccc(=O)n(C(C)C)n1 [Compound 40]
- IC50 [1]: ≤ 1000 nM
- IC50 [2]: ≤ 30 nM

Structure (SMILES): C=CCn1c(=O)c2cnc(Nc3ccc(N4CCNCC4)c(C)c3)nc2n1-c1ccc(=O)n(C(C)C)n1 [Compound 41]
- IC50 [1]: ≤ 1000 nM
- IC50 [2]: ≤ 30 nM

Structure (SMILES): C=CCn1c(=O)c2cnc(Nc3ccc(N4CCN(C)CC4)c(C)c3)nc2n1-c1ccc(=O)n(C(C)C)n1 [Compound 42]
- IC50 [1]: ≤ 1000 nM
- IC50 [2]: ≤ 30 nM
